Reference: ChEMBL document CHEMBL2150974 (J Med Chem, 2012)
Activity calls are given as the source filed them. No cut-off for these calls is given here.

Assays:
[1] = target: T1, NUAK family SNF1-like kinase 1 (Homo sapiens) (UniProt O60285); assay: Inhibition of ARK5 at 10 uM
T1 sequence (whole entry): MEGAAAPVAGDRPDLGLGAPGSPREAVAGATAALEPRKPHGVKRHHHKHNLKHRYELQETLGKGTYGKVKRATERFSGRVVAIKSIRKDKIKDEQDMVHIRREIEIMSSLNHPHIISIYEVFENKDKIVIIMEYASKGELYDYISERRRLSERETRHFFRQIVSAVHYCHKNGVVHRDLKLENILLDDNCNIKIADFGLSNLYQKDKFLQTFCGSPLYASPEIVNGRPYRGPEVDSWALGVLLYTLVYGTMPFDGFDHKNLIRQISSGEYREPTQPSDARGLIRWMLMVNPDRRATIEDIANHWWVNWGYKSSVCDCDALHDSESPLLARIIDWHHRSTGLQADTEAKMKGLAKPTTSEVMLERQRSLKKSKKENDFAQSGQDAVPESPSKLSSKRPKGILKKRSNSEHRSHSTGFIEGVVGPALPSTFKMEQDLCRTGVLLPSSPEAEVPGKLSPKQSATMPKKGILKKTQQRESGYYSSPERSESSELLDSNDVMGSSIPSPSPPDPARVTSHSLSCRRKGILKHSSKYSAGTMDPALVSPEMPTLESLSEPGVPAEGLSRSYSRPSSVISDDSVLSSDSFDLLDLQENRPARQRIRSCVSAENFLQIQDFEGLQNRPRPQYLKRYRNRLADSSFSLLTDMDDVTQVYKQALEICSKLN

[2] = target: Focal adhesion kinase 1 (Homo sapiens) (UniProt Q05397); assay: Inhibition of FAK at 10 uM
[3] = target: BDNF/NT-3 growth factors receptor (Homo sapiens) (UniProt Q16620); assay: Inhibition of TRKB at 10 uM
[4] = target: Tyrosine-protein kinase receptor UFO (Homo sapiens) (UniProt P30530); assay: Inhibition of AXL at 10 uM
[5] = target: Hepatocyte growth factor receptor (Homo sapiens) (UniProt P08581); assay: Inhibition of MET at 10 uM
[6] = target: T2, Mitogen-activated protein kinase 14 (Homo sapiens, UniProt Q16539); assay: Inhibition of p38alpha-dependent TNFalpha production in human whole blood
[7] = target: Vascular endothelial growth factor receptor 2 (Homo sapiens) (UniProt P35968); assay: Inhibition of VEGFR2 at 10 uM
[8] = target: Aurora kinase B (Homo sapiens) (UniProt Q96GD4); assay: Inhibition of AuroraB at 10 uM
[9] = target: Insulin receptor (Homo sapiens) (UniProt P06213); assay: Inhibition of INSR at 10 uM
[10] = test system: Serine/threonine-protein kinase B-raf (Homo sapiens), P15056 [V600E]; assay: Inhibition of BRAF V600E mutant at 10 uM
[11] = target: RAC-alpha serine/threonine-protein kinase (Homo sapiens) (UniProt P31749); assay: Inhibition of AKT1 at 10 uM
[12] = target: Proto-oncogene tyrosine-protein kinase Src (Homo sapiens) (UniProt P12931); assay: Inhibition of SRC at 10 uM
[13] = target: Insulin-like growth factor 1 receptor (Homo sapiens) (UniProt P08069); assay: Inhibition of IGF1R at 10 uM
[14] = target: T2, Mitogen-activated protein kinase 14; assay: Inhibition of p38alpha by immunosorbent based kinase assay
[15] = target: Serine/threonine-protein kinase PLK1 (Homo sapiens) (UniProt P53350); assay: Inhibition of PLK1 at 10 uM
[16] = target: Serine/threonine-protein kinase N1 (Homo sapiens) (UniProt Q16512); assay: Inhibition of PRK1 at 10 uM
[17] = target: Casein kinase II subunit alpha (Homo sapiens) (UniProt P68400); assay: Inhibition of CK2alpha1 at 10 uM
[18] = target: T3, Serine/threonine-protein kinase PLK4 (Homo sapiens) (UniProt O00444); assay: Inhibition of SAK at 10 uM
T3 sequence (whole entry): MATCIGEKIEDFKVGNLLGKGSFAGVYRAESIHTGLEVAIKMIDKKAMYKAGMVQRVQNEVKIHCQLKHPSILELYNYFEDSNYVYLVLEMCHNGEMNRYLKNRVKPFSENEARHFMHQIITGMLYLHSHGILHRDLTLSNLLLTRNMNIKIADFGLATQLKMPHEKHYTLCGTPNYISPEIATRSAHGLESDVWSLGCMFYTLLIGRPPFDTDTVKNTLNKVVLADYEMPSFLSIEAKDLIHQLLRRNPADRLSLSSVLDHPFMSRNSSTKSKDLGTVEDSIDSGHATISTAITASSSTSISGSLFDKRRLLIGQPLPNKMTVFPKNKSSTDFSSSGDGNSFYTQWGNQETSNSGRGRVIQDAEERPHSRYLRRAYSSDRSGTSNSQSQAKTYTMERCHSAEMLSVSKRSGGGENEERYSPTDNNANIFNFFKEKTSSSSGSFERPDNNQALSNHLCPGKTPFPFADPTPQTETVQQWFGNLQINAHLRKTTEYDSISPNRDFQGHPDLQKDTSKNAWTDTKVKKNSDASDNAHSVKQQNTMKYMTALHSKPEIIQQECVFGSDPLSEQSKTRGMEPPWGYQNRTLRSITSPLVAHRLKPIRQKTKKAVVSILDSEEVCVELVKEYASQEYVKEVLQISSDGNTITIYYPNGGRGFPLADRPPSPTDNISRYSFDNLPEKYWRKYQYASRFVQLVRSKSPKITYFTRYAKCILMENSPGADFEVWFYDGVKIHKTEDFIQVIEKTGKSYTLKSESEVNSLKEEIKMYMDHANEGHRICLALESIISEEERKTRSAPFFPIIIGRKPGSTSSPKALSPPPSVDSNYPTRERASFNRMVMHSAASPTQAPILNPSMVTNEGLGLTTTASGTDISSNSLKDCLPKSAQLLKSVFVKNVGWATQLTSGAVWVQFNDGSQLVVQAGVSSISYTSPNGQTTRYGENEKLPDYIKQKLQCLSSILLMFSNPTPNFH

T2 sequence (Q16539 whole entry): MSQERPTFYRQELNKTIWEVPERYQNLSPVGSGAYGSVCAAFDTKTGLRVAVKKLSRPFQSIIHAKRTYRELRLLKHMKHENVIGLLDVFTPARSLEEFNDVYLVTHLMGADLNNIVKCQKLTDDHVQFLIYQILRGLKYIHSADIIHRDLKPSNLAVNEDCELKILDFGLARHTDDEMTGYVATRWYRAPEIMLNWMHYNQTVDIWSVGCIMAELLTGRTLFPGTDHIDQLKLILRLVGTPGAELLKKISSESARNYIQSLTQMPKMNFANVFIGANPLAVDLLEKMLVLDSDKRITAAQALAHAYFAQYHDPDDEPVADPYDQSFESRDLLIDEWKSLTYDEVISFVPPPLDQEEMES
Serine/threonine-protein kinase N1 (Homo sapiens), sequence (Q16512 2-942 limits assumed): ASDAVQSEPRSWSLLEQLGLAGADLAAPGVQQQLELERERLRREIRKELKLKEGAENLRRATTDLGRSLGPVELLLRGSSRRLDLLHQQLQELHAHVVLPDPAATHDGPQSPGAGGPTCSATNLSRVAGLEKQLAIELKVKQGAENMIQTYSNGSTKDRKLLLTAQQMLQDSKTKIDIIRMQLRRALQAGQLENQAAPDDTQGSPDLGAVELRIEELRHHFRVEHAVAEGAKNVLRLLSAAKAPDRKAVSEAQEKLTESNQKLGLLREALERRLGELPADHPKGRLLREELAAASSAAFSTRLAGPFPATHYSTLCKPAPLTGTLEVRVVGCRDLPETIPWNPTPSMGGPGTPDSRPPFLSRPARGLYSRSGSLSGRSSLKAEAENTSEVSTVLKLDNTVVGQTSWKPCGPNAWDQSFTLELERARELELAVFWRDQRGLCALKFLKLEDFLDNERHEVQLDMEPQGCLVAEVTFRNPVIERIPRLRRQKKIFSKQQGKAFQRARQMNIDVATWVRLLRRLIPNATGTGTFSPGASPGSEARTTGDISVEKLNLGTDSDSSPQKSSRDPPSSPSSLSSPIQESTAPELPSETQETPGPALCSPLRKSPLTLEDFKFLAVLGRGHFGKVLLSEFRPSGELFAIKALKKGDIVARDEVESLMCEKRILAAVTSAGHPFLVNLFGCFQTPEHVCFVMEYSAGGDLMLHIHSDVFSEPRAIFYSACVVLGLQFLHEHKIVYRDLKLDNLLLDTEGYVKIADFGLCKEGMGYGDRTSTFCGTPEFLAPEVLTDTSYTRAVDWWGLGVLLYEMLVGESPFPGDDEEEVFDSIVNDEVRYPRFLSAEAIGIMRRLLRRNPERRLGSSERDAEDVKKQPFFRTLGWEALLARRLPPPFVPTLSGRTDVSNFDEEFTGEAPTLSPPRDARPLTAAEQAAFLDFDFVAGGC
Serine/threonine-protein kinase B-raf (Homo sapiens), P15056 [V600E], sequence (P15056 whole entry V600E): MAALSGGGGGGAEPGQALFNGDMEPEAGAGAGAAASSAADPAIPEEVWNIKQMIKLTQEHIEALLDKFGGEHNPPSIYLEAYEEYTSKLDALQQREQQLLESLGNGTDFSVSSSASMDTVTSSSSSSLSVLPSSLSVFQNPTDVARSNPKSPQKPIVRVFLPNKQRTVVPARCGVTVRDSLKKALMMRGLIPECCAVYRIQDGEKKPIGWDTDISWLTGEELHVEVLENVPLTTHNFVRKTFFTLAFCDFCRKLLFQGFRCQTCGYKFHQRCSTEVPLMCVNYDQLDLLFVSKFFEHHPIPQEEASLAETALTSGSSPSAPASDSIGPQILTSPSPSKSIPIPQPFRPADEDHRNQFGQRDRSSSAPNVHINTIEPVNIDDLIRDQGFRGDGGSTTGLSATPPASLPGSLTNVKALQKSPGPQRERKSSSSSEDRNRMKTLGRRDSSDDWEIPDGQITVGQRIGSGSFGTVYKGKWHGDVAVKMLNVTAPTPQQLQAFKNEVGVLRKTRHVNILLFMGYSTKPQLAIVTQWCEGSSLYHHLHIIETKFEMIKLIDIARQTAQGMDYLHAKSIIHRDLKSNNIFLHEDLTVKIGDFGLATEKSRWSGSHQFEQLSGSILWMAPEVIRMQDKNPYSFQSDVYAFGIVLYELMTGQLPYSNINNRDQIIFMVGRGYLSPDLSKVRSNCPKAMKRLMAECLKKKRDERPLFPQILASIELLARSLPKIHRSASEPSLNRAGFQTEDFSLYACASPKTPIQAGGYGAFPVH
Tyrosine-protein kinase receptor UFO (Homo sapiens), sequence (P30530 whole entry): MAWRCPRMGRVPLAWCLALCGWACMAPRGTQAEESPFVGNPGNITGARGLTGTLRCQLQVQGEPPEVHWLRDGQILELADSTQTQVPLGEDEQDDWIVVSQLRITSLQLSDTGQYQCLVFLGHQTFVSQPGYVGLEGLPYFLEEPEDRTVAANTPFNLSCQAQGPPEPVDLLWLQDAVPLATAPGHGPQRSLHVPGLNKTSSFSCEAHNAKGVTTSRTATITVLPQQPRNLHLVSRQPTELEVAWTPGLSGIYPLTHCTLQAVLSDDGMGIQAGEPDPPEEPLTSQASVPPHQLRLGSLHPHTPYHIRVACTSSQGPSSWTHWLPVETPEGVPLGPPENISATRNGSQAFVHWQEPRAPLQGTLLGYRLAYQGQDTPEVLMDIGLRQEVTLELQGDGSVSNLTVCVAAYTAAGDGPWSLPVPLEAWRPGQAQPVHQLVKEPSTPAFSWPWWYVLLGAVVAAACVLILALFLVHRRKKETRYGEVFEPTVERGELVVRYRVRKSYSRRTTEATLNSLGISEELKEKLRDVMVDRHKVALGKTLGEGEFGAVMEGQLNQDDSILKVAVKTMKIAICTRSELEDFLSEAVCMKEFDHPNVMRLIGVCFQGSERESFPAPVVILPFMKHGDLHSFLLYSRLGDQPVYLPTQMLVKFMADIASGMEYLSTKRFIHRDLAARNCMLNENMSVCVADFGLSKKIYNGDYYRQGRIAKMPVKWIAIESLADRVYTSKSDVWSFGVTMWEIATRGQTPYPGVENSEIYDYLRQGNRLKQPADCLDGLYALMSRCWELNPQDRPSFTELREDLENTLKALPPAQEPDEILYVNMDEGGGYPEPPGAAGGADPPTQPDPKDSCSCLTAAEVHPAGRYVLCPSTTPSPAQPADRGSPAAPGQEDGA
Proto-oncogene tyrosine-protein kinase Src (Homo sapiens), sequence (P12931 2-536 limits assumed): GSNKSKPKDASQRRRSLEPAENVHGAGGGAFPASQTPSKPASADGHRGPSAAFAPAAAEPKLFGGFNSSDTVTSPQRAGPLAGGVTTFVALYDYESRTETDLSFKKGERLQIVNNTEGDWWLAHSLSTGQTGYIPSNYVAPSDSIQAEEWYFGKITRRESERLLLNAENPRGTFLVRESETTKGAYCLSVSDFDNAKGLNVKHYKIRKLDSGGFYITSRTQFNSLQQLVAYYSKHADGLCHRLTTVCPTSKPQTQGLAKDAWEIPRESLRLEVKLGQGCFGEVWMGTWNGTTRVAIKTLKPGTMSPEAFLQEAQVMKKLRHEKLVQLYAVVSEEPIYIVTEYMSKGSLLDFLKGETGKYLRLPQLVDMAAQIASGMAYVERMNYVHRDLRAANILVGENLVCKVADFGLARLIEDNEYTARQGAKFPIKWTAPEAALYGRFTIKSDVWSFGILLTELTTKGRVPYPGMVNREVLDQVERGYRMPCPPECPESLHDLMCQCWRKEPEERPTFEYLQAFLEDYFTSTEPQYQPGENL
Serine/threonine-protein kinase PLK1 (Homo sapiens), sequence (P53350 whole entry): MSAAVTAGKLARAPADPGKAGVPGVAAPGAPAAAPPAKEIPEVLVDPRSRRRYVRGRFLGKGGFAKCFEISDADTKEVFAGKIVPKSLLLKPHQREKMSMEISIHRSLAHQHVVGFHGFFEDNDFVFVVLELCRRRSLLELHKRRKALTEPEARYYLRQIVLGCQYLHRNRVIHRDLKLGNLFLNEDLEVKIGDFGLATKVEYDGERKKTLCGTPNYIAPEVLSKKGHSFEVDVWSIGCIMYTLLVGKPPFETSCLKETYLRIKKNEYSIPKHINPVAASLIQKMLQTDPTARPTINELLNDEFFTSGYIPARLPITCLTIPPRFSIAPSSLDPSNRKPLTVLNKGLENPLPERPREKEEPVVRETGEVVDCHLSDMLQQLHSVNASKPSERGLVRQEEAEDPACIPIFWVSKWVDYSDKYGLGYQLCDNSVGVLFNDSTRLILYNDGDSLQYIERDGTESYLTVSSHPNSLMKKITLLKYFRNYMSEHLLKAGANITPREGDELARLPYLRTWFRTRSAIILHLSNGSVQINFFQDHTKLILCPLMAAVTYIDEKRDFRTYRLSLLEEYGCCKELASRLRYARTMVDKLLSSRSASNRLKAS
RAC-alpha serine/threonine-protein kinase (Homo sapiens), sequence (P31749 whole entry): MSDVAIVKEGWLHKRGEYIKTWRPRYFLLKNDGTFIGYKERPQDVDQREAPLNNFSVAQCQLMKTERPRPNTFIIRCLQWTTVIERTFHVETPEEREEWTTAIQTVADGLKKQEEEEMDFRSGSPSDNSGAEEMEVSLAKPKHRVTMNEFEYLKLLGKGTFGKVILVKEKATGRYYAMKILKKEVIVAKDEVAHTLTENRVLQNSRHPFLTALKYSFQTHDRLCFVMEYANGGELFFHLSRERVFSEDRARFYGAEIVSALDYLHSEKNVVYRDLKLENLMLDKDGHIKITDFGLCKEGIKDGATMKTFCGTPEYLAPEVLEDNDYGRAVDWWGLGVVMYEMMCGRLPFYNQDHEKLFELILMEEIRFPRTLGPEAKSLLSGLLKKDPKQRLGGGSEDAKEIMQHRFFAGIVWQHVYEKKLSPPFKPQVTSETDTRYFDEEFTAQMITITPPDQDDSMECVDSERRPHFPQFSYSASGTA
Casein kinase II subunit alpha (Homo sapiens), sequence (P68400 whole entry, looked up): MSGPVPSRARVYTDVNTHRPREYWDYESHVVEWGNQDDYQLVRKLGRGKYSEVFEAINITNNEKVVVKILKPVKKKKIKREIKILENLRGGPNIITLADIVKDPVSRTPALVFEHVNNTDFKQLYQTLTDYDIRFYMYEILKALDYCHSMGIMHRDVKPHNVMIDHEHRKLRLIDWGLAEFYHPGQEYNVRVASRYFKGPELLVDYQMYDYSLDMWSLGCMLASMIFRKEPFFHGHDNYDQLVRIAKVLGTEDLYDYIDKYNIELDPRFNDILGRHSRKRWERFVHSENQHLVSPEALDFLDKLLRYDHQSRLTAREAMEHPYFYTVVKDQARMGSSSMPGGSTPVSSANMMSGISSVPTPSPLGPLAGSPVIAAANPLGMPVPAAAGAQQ

`O=C1c2ccc(Nc3ccc(F)cc3F)cc2CCc2ccc(OCCCO)cc21` was tested, and the inhibition [1] was “inactive”, the inhibition [2] was “inactive” and the inhibition [3] was “inactive”. The inhibition [4] was “inactive”, the inhibition [5] was “inactive” and the IC50 [6] was 190 nM. The inhibition [7] was “inactive”, the inhibition [8] was “inactive” and the inhibition [9] was “inactive”. For the same compound, the inhibition [10] was “inactive”, the inhibition [11] was “inactive” and the inhibition [12] was “inactive”. For the same compound, the inhibition [13] was “inactive”, the IC50 [14] was 8 nM and the inhibition [15] was “inactive”. The inhibition [16] was “inactive”, the inhibition [17] was “inactive” and the inhibition [18] was “inactive”.

`CC1(C)OC[C@@H](COc2ccc3c(c2)CCc2cc(Nc4ccc(F)cc4F)ccc2C3=O)O1` was tested, and the inhibition [1] was “inactive”, the inhibition [2] was “inactive” and the inhibition [3] was “inactive”. The inhibition [4] was “inactive”, the inhibition [5] was “inactive” and the IC50 [6] was 123000 nM. For the same compound, the inhibition [7] was “inactive”, the inhibition [8] was “inactive” and the inhibition [9] was “inactive”. The inhibition [10] was “inactive”, the inhibition [11] was “inactive” and the inhibition [12] was “inactive”. The inhibition [13] was “inactive”, the IC50 [14] was 360 nM and the inhibition [15] was “inactive”. The inhibition [16] was “inactive”, the inhibition [17] was “inactive” and the inhibition [18] was “inactive”.

For `O=C1c2ccc(Nc3ccc(F)cc3F)cc2CCc2ccc(OCCO)cc21`, the inhibition [1] was “inactive”, the inhibition [2] was “inactive” and the inhibition [3] was “inactive”. The inhibition [4] was “inactive”, the inhibition [5] was “inactive” and the IC50 [6] was 480 nM. For the same compound, the inhibition [7] was “inactive”, the inhibition [8] was “inactive” and the inhibition [9] was “inactive”. For the same compound, the inhibition [10] was “inactive”, the inhibition [11] was “inactive” and the inhibition [12] was “inactive”. For the same compound, the inhibition [13] was “inactive”, the IC50 [14] was 10 nM and the inhibition [15] was “inactive”. The inhibition [16] was “inactive”, the inhibition [17] was “inactive” and the inhibition [18] was “inactive”.

For `CC1(C)OC[C@@H](CCOc2ccc3c(c2)C(=O)c2ccc(Nc4ccc(F)cc4F)cc2CC3)O1`, the inhibition [1] was “inactive”, the inhibition [2] was “inactive” and the inhibition [3] was “inactive”. For the same compound, the inhibition [4] was “inactive”, the inhibition [5] was “inactive” and the IC50 [6] was 320 nM. For the same compound, the inhibition [7] was “inactive”, the inhibition [8] was “inactive” and the inhibition [9] was “inactive”. The inhibition [10] was “inactive”, the inhibition [11] was “inactive” and the inhibition [12] was “inactive”. For the same compound, the inhibition [13] was “inactive”, the IC50 [14] was 10 nM and the inhibition [15] was “inactive”. For the same compound, the inhibition [16] was “inactive”, the inhibition [17] was “inactive” and the inhibition [18] was “inactive”.

Work on `COc1ccc2c(c1)CCc1cc(Nc3ccccc3N)ccc1C2=O` yielded an IC50 [6] of 12300 nM and an IC50 [14] of 70 nM.

With `Nc1ccccc1Nc1ccc2c(c1)CCc1ccc(OC[C@@H](O)CO)cc1C2=O` the IC50 [6] was 170 nM and the IC50 [14] was 8 nM.

`CC1(C)OC[C@H](COc2ccc3c(c2)CCc2cc(Nc4ccccc4N)ccc2C3=O)O1` showed an IC50 [6] of 93600 nM and an IC50 [14] of 80 nM.

For `O=C1c2ccc(Nc3ccccc3)cc2CCc2ccc(O)cc21`, the IC50 [6] was 2200 nM and the IC50 [14] was 60 nM.

With `O=C1c2ccc(Nc3ccc(F)cc3Cl)cc2CCc2ccc(O)cc21` the IC50 [6] was 3800 nM and the IC50 [14] was 560 nM.

Work on `Nc1ccccc1Nc1ccc2c(c1)CCc1cc(OC[C@H](O)CO)ccc1C2=O` yielded an IC50 [6] of 6000 nM and an IC50 [14] of 30 nM.

Compound `O=C1c2ccc(Nc3ccccc3Cl)cc2CCc2ccc(O)cc21` has an IC50 [6] of 7500 nM and an IC50 [14] of 140 nM.

In the case of `COc1ccc2c(c1)CCc1cc(Nc3ccc(F)cc3F)ccc1C2=O`, the IC50 [6] is reported as 10200 nM and the IC50 [14] is reported as 20 nM.

`COc1ccc2c(c1)C(=O)c1ccc(Nc3ccc(F)cc3F)cc1CC2` showed an IC50 [6] of 1200 nM and an IC50 [14] of 20 nM.

`O=c1c2ccc(Nc3ccc(F)cc3F)cc2ccc2ccc(O)cc12` showed an IC50 [6] of 26700 nM and an IC50 [14] of 300 nM.

Work on `O=C1c2ccc(Nc3ccc(F)cc3F)cc2CCc2cc(OCCCO)ccc21` yielded an IC50 [6] of 19500 nM and an IC50 [14] of 30 nM.

`CC1(C)OC[C@@H](COc2ccc3c(c2)C(=O)c2ccc(Nc4ccccc4N)cc2CC3)O1` was tested, and the IC50 [6] was 190 nM and the IC50 [14] was 60 nM.

With `COc1ccc2c(c1)C(=O)c1ccc(Nc3ccc(F)cc3N)cc1CC2` the IC50 [6] was 1900 nM and the IC50 [14] was 40 nM.

`O=C1c2ccc(Nc3ccc(F)cc3F)cc2CCc2ccc(OC[C@@H](O)CO)cc21` was tested, and the inhibition [1] was “inactive”, the inhibition [2] was “inactive” and the inhibition [3] was “inactive”. For the same compound, the inhibition [4] was “inactive”, the inhibition [5] was “inactive” and the inhibition [7] was “inactive”. For the same compound, the inhibition [8] was “inactive”, the inhibition [9] was “inactive” and the inhibition [10] was “inactive”. The inhibition [11] was “inactive”, the inhibition [12] was “inactive” and the inhibition [13] was “inactive”. The inhibition [15] was “inactive”, the inhibition [16] was “inactive” and the inhibition [17] was “inactive”. For the same compound, the inhibition [18] was “inactive”.

`COc1ccc2c(c1)C(=O)c1ccc(Oc3ccc(F)cc3F)cc1CC2` was tested, and the IC50 [14] was 100 nM.

`O=C1c2ccc(Nc3ccc(F)cc3F)cc2CCc2ccc(O)cc21` was tested, and the IC50 [6] was 700 nM and the IC50 [14] was 20 nM.

`O=C1c2ccc(Oc3ccc(F)cc3F)cc2CCc2ccc(OC[C@@H](O)CO)cc21` was tested, and the IC50 [6] was 6700 nM and the IC50 [14] was 40 nM.

In the case of `O=C1c2ccc(Nc3ccc(F)cc3F)cc2CCc2ccc(OCCN3CCOCC3)cc21`, the IC50 [6] is reported as 80 nM and the IC50 [14] is reported as 10 nM.

`COc1ccc2c(c1)C(=O)c1ccc(Nc3ccccc3F)cc1CC2` was tested, and the IC50 [6] was 4900 nM and the IC50 [14] was 70 nM.

`COc1ccc2c(c1)C(=O)c1ccc(Nc3ccccc3)cc1CC2` was tested, and the IC50 [6] was 3200 nM and the IC50 [14] was 70 nM.

`O=C1c2ccc(Nc3ccc(F)cc3F)cc2CCc2ccc(OCC[C@@H](O)CO)cc21` was tested, and the IC50 [6] was 80 nM and the IC50 [14] was 10 nM.

`CC1(C)OC[C@@H](COc2ccc3c(c2)C(=O)c2ccc(Nc4ccc(F)cc4F)cc2CC3)O1` gave an IC50 [6] of 230 nM and an IC50 [14] of 40 nM.

In the case of `COc1ccc2c(c1)C(=O)c1ccc(Nc3ccccc3OC)cc1CC2`, the IC50 [6] is reported as 7600 nM and the IC50 [14] is reported as 380 nM.

In the case of `O=C1c2ccc(Oc3ccc(F)cc3F)cc2CCc2ccc(OCCN3CCOCC3)cc21`, the IC50 [6] is reported as 4500 nM and the IC50 [14] is reported as 80 nM.

For `O=C1c2ccc(Nc3ccc(F)cc3F)cc2CCc2cc(OCCO)ccc21`, the IC50 [6] was 4700 nM and the IC50 [14] was 20 nM.

Compound `COc1ccc2c(c1)C(=O)c1ccc(Nc3ccccc3N)cc1CC2` has an IC50 [6] of 1500 nM and an IC50 [14] of 40 nM.

With `O=C1c2ccc(Nc3ccc(F)cc3F)cc2CCc2cc(OCCN3CCOCC3)ccc21` the IC50 [6] was 40000 nM and the IC50 [14] was 20 nM.

Compound `COc1ccc2c(c1)C(=O)c1ccc(Nc3ccc(F)c(F)c3F)cc1CC2` has an IC50 [6] of 81000 nM and an IC50 [14] of 3530 nM.
